From ChEMBL document CHEMBL1201862, “PubChem BioAssay data set” (2004)
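Assay format: 96-well plates, 48-hour exposure. Abbreviation: GI50, concentration required for 50% inhibition of growth.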 The source made the active and inactive calls. No stated cut-off is given here; in the data, active = GI50 up to about 1.1 µM and inactive = higher.

Legend:
Assay in all cases: inhibition of tumour cell growth, NCI panel, 48 h
[1] = system: T47D
[2] = system: UACC-257
[3] = system: M14
[4] = system: SR
[5] = system: SF-295
[6] = system: SK-MEL-5
[7] = system: SF-539
[8] = system: COLO 205
[9] = system: OVCAR-3
[10] = system: HCT-15
[11] = system: OVCAR-4
[12] = system: IGROV-1
[13] = system: MOLT-4
[14] = system: SF-268
[15] = system: Hs-578T
[16] = system: CAKI-1
[17] = system: HT-29
[18] = system: SN12C
[19] = system: OVCAR-5
[20] = system: MCF7
[21] = system: U-251
[22] = system: SK-MEL-2
[23] = system: TK-10
[24] = system: SNB-75
[25] = system: 786-0
[26] = system: CCRF-CEM
[27] = system: DU-145
[28] = system: SNB-19
[29] = system: NCI-H522
[30] = system: HL-60
[31] = system: UO-31
[32] = system: LOX IMVI
[33] = system: A549
[34] = system: UACC-62
[35] = system: PC-3
[36] = system: A498
[37] = system: ACHN
[38] = system: HOP-92
[39] = system: KM12
[40] = system: OVCAR-8
[41] = system: NCI-H460
[42] = system: K562
[43] = system: MDA-MB-435
[44] = system: HOP-62
[45] = system: RPMI-8226
[46] = system: EKVX
[47] = system: HCT-116
[48] = system: NCI/ADR-RES
[49] = system: SW-620
[50] = system: NCI-H23
[51] = system: MDA-MB-231
[52] = system: BT-549
[53] = system: SK-OV-3
[54] = system: NCI-H226
[55] = system: Malme-3M
[56] = system: RXF 393
[57] = system: SK-MEL-28
[58] = system: HCC 2998

## OC[C@H]1O[C@@H]2O[C@@](COCc3ccccc3)([C@H](OCc3ccccc3)[C@H]2O)[C@@H]1OCc1ccccc1
[1]
  GI50: 14.8 µM (inactive)
[2]
  GI50: 17.5 µM (inactive)
[3]
  GI50: 17.6 µM (inactive)
[4]
  GI50: 2.33 µM (inactive)
[5]
  GI50: 15.3 µM (inactive)
[6]
  GI50: 15.3 µM (inactive)
[7]
  GI50: 17.5 µM (inactive)
[8]
  GI50: 17.4 µM (inactive)
[9]
  GI50: 14.6 µM (inactive)
[10]
  GI50: 18.8 µM
[11]
  GI50: 2.99 µM (inactive)
[12]
  GI50: 13.9 µM (inactive)
[13]
  GI50: 4.98 µM (inactive)
[14]
  GI50: 18.1 µM (inactive)
[15]
  GI50: 7.4 µM (inactive)
[16]
  GI50: 15.7 µM (inactive)
[17]
  GI50: 4.81 µM (inactive)
[18]
  GI50: 15.7 µM (inactive)
[19]
  GI50: 17.1 µM (inactive)
[20]
  GI50: 20.6 µM (inactive)
[21]
  GI50: 15.7 µM (inactive)
[22]
  GI50: 16.3 µM (inactive)
[23]
  GI50: 18.6 µM (inactive)
[24]
  GI50: 16.2 µM (inactive)
[25]
  GI50: 17 µM (inactive)
[26]
  GI50: 13.4 µM (inactive)
[27]
  GI50: 16.5 µM (inactive)
[28]
  GI50: 17.6 µM (inactive)
[29]
  GI50: 17.3 µM (inactive)
[30]
  GI50: 18.2 µM (inactive)
[31]
  GI50: 15.6 µM (inactive)
[32]
  GI50: 16.7 µM (inactive)
[33]
  GI50: 14.7 µM (inactive)
[34]
  GI50: 14.4 µM (inactive)
[35]
  GI50: 14.2 µM (inactive)
[36]
  GI50: 18.1 µM (inactive)
[37]
  GI50: 17.3 µM (inactive)
[38]
  GI50: 11.9 µM (inactive)
[39]
  GI50: 16.7 µM (inactive)
[40]
  GI50: 14.6 µM (inactive)
[41]
  GI50: 17 µM (inactive)
[42]
  GI50: 7.76 µM (inactive)
[43]
  GI50: 17.3 µM (inactive)
[44]
  GI50: 18.1 µM (inactive)
[45]
  GI50: 13.7 µM (inactive)
[46]
  GI50: 14.1 µM (inactive)
[47]
  GI50: 16.5 µM (inactive)
[48]
  GI50: 17.2 µM (inactive)
[49]
  GI50: 20.2 µM (inactive)
[50]
  GI50: 16.6 µM (inactive)
[51]
  GI50: 15.3 µM (inactive)
[52]
  GI50: 22.2 µM (inactive)
[53]
  GI50: 14.8 µM (inactive)

## CC(=O)C1=C(C)N(c2ccc(C)cc2)C2(O)C=CC(=O)C3C(=O)N(c4ccccc4)C(=O)C132 (stereo not given)
[1]
  GI50: 14.1 µM (inactive)
[2]
  GI50: 17.6 µM (inactive)
[3]
  GI50: 24.4 µM (inactive)
[4]
  GI50: 2.94 µM (inactive)
[5]
  GI50: 14.4 µM (inactive)
[6]
  GI50: 15.4 µM (inactive)
[7]
  GI50: 24.4 µM (inactive)
[8]
  GI50: 23.3 µM (inactive)
[9]
  GI50: 22.3 µM (inactive)
[10]
  GI50: 11.2 µM
[11]
  GI50: 20.8 µM (inactive)
[12]
  GI50: 8.43 µM (inactive)
[14]
  GI50: 31 µM (inactive)
[15]
  GI50: 29.7 µM (inactive)
[16]
  GI50: 18.6 µM (inactive)
[17]
  GI50: 18.6 µM (inactive)
[18]
  GI50: 15.5 µM (inactive)
[19]
  GI50: 55.2 µM (inactive)
[20]
  GI50: 8.3 µM (inactive)
[21]
  GI50: 17.7 µM (inactive)
[54]
  GI50: 17.1 µM (inactive)
[22]
  GI50: 12.5 µM (inactive)
[23]
  GI50: 18.4 µM (inactive)
[24]
  GI50: 24.4 µM (inactive)
[25]
  GI50: 30.6 µM (inactive)
[26]
  GI50: 3.9 µM (inactive)
[27]
  GI50: 23.4 µM (inactive)
[28]
  GI50: 25.2 µM (inactive)
[29]
  GI50: 7.89 µM (inactive)
[30]
  GI50: 2.47 µM (inactive)
[31]
  GI50: 11.2 µM (inactive)
[32]
  GI50: 3.08 µM (inactive)
[33]
  GI50: 38.3 µM (inactive)
[34]
  GI50: 16.7 µM (inactive)
[35]
  GI50: 22.1 µM (inactive)
[55]
  GI50: 19.6 µM (inactive)
[56]
  GI50: 20.3 µM (inactive)
[36]
  GI50: 20.2 µM (inactive)
[37]
  GI50: 15.9 µM (inactive)
[57]
  GI50: 19.5 µM (inactive)
[38]
  GI50: 16.8 µM (inactive)
[39]
  GI50: 21.9 µM (inactive)
[40]
  GI50: 23.3 µM (inactive)
[41]
  GI50: 29.4 µM (inactive)
[42]
  GI50: 3.42 µM (inactive)
[43]
  GI50: 36.3 µM (inactive)
[44]
  GI50: 25.9 µM (inactive)
[45]
  GI50: 3.85 µM (inactive)
[46]
  GI50: 32.6 µM (inactive)
[47]
  GI50: 6.49 µM (inactive)
[48]
  GI50: 54.2 µM (inactive)
[49]
  GI50: 4.45 µM (inactive)
[58]
  GI50: 22.5 µM (inactive)
[50]
  GI50: 17.1 µM (inactive)
[51]
  GI50: 22.5 µM (inactive)
[52]
  GI50: 17.4 µM (inactive)

## COc1ccc(C(C)c2cc3c(cc2O)OCO3)cc1 (stereo not given)
[1]
  GI50: 24.9 µM (inactive)
[2]
  GI50: 15.6 µM (inactive)
[3]
  GI50: 13.8 µM (inactive)
[4]
  GI50: 2.74 µM (inactive)
[5]
  GI50: 14.3 µM (inactive)
[6]
  GI50: 14.8 µM (inactive)
[7]
  GI50: 16.9 µM (inactive)
[8]
  GI50: 14.3 µM (inactive)
[9]
  GI50: 13.9 µM (inactive)
[10]
  GI50: 7.33 µM
[11]
  GI50: 31.3 µM (inactive)
[12]
  GI50: 15.8 µM (inactive)
[13]
  GI50: 9.02 µM (inactive)
[14]
  GI50: 14.9 µM (inactive)
[15]
  GI50: 20.5 µM (inactive)
[16]
  GI50: 25.2 µM (inactive)
[17]
  GI50: 12.6 µM (inactive)
[18]
  GI50: 18.6 µM (inactive)
[19]
  GI50: 20.6 µM (inactive)
[20]
  GI50: 15.1 µM (inactive)
[21]
  GI50: 15.1 µM (inactive)
[54]
  GI50: 19.7 µM (inactive)
[22]
  GI50: 14.9 µM (inactive)
[23]
  GI50: 16.3 µM (inactive)
[24]
  GI50: 20.3 µM (inactive)
[25]
  GI50: 17.9 µM (inactive)
[27]
  GI50: 18.6 µM (inactive)
[28]
  GI50: 23.5 µM (inactive)
[29]
  GI50: 11.4 µM (inactive)
[30]
  GI50: 13.2 µM (inactive)
[31]
  GI50: 16.2 µM (inactive)
[32]
  GI50: 13.2 µM (inactive)
[33]
  GI50: 14.7 µM (inactive)
[34]
  GI50: 12.1 µM (inactive)
[35]
  GI50: 15.7 µM (inactive)
[56]
  GI50: 14.8 µM (inactive)
[36]
  GI50: 14.8 µM (inactive)
[37]
  GI50: 19.7 µM (inactive)
[57]
  GI50: 16.8 µM (inactive)
[38]
  GI50: 16.3 µM (inactive)
[39]
  GI50: 12.9 µM (inactive)
[40]
  GI50: 16.7 µM (inactive)
[41]
  GI50: 14.7 µM (inactive)
[42]
  GI50: 6 µM (inactive)
[43]
  GI50: 4.56 µM (inactive)
[44]
  GI50: 16.4 µM (inactive)
[45]
  GI50: 16.8 µM (inactive)
[46]
  GI50: 20.3 µM (inactive)
[47]
  GI50: 15.9 µM (inactive)
[48]
  GI50: 10.8 µM (inactive)
[49]
  GI50: 11.5 µM (inactive)
[58]
  GI50: 7.01 µM (inactive)
[50]
  GI50: 16.2 µM (inactive)
[51]
  GI50: 14.2 µM (inactive)
[52]
  GI50: 16.7 µM (inactive)
[53]
  GI50: 19.7 µM (inactive)
